# Experimental data from patent US20250144067A1, “PERSONALIZED STARVATION THERAPY FOR CANCER” (Faeth Therapeutics, Inc., priority 2021, published 2025).
# Counter-ions that a name gives are not always drawn. Like-named read-outs stand apart in the source and are kept apart here. Peptide text beside a SMILES is read from it.
# Tests used:
# [1] = test system: NCI-H292 lung cancer cells; assay: FDA drug screening, complete media vs cholesterol-free media without statin (TABLE 1); format: cell-based, human
# [2] = test system: NCI-H292 lung cancer cells; assay: FDA drug screening, complete media vs cholesterol-free media with simvastatin (TABLE 2); format: cell-based, human
# [3] = Complete minus Cholesterol-free, >0 enhanced anti-cancer activity, about 0 neutral, <0 antagonist
# [4] = NCI-H292 cells, cholesterol-free media without statin
# [5] = NCI-H292 cells, FDA drug library screen, cholesterol-free media with simvastatin 0.04 μM
# [6] = NCI-H292 cells, FDA drug library screen, complete media
# [7] = complete media vs cholesterol-free media + simvastatin (0.04 μM), >0 enhanced anti-cancer activity, about 0 neutral, <0 antagonist
# [8] = NCI-H292 cells, drug in cholesterol-free media with simvastatin 0.04 μM
# [9] = NCI-H292 cells, drug in complete media
# [10] = Complete minus Cholesterol-free, greater than 0 enhanced anti-cancer activity, about 0 neutral, below 0 antagonists
# [11] = NCI-H292 cells in cholesterol-free media without statin
# [12] = NCI-H292 cells in complete media
# [13] = NCI-H292 cells, cholesterol-free media with simvastatin 0.04 μM, FDA drug library screen (TABLE 2)
# [14] = NCI-H292 cells, complete media, FDA drug library screen (TABLE 2)
# [15] = complete media minus cholesterol-free media + simvastatin (0.04 μM), >0 enhanced anti-cancer activity, about 0 neutral, <0 antagonist
# [16] = NCI-H292 cells, cholesterol-free media without statin, FDA drug library screen
# [17] = NCI-H292 cells, complete media, FDA drug library screen
# [18] = Complete minus Cholesterol-free, greater than 0 enhanced anti-cancer activity, about 0 neutral, below 0 antagonist
# [19] = NCI-H292 cells, FDA drug library screen, cholesterol-free media without statin
# [20] = complete media minus cholesterol-free media + simvastatin, >0 enhanced anti-cancer activity, about 0 neutral, <0 antagonist
# [21] = complete vs cholesterol-free media, >0 enhanced anti-cancer activity, about 0 neutral, <0 antagonist
# [22] = NCI-H292 cells, cholesterol-free media with simvastatin 0.04 μM, cell growth value in FDA drug screen
# [23] = NCI-H292 cells, complete media, cell growth value in FDA drug screen
# [24] = complete vs cholesterol-free media, greater than 0 enhanced anti-cancer activity, about 0 neutral, below 0 antagonists
# [25] = NCI-H292 cells, FDA library drug in cholesterol-free media with simvastatin 0.04 μM
# [26] = NCI-H292 cells, FDA library drug in complete media
molecule,measurement,setting,value
Nc1cc(N2CCCCC2)nc(N)[n+]1OS(=O)(=O)[O-] [Minoxidil sulfate],Difference,[1]; [3],−0.27
same,Cholesterol-free,[1]; [4],1.329
same,Complete,"[1]; NCI-H292 cells, complete media",1.056
same,Cholesterol-free media + simvastatin (0.04 μM),[2]; [5],1.144
same,Complete Media,[2]; [6],1.047
same,Difference,[2]; [7],−0.10
CC1(C)[C@H](C(=O)O)N2C(=O)C[C@H]2S1(=O)=O [Sulbactam],Cholesterol-free,[1],1.094
same,Complete,[1],1.056
same,Difference,[1],−0.04
same,Cholesterol-free media + simvastatin (0.04 μM),[2],1.06
same,Complete Media,[2],1.241
same,Difference,[2],0.18
Cn1cnc([N+](=O)[O-])c1Sc1ncnc2nc[nH]c12 [Azathioprine],Difference,[1]; [3],−0.20
same,Cholesterol-free,[1]; [4],0.5865
same,Complete,"[1]; NCI-H292 cells, complete media",0.3893
same,Cholesterol-free media + simvastatin (0.04 μM),[2]; [8],1.672
same,Complete Media,[2]; [9],1.494
same,Difference,[2]; [7],−0.18
CC(C)(Oc1ccc(CCNC(=O)c2ccc(Cl)cc2)cc1)C(=O)O [Bezafibrate],Difference,[1]; [10],−0.60
same,Cholesterol-free,[1]; [11],1.652
same,Complete,[1]; [12],1.053
same,Cholesterol-free media + simvastatin (0.04 μM),[2]; [13],1.03
same,Complete Media,[2]; [14],1.024
same,Difference,[2]; [15],−0.01
N=C(N)NCCC[C@H](N)C(=O)O [L-Arginine],Cholesterol-free,[1],0.984
same,Complete,[1],1.115
same,Difference,[1],0.13
same,Cholesterol-free media + simvastatin (0.04 μM),[2],1.189
same,Complete Media,[2],1.484
same,Difference,[2],0.29
Cc1cccc([C@H](C)c2cnc[nH]2)c1C [Dexmedetomidine (hydrochloride)],Difference,[1]; [3],−0.05
same,Cholesterol-free,[1]; [16],0.9551
same,Complete,[1]; [17],0.9084
same,Cholesterol-free media + simvastatin (0.04 μM),[2]; [13],1.227
same,Complete Media,[2]; [14],1.157
same,Difference,[2]; [15],−0.07
CCN(CC)CC#CCOC(=O)C(O)(c1ccccc1)C1CCCCC1 (centres unmarked) [Oxybutynin],Difference,[1]; [18],−0.10
same,Cholesterol-free,[1]; [19],1.075
same,Complete,[1]; [6],0.9761
same,Cholesterol-free media + simvastatin (0.04 μM),[2]; [5],0.7436
same,Complete Media,[2]; [6],1.133
same,Difference,[2]; [20],0.39
CN1Cc2c(Cl)cc(Cl)cc2[C@H](c2cccc(S(=O)(=O)NCCOCCOCCNC(=O)NCCCCNC(=O)NCCOCCOCCNS(=O)(=O)c3cccc([C@@H]4CN(C)Cc5c(Cl)cc(Cl)cc54)c3)c2)C1 [Tenapanor],Cholesterol-free,[1]; [16],0.6884
same,Complete,[1]; [17],0.8628
same,Difference,[1]; [21],0.17
same,Cholesterol-free media + simvastatin (0.04 μM),[2]; [22],1.602
same,Complete Media,[2]; [23],1.62
same,Difference,[2]; [20],0.02
CC(C)C(=O)c1c(C(C)C)nn2ccccc12 [Ibudilast],Difference,[1]; [3],0.04
same,Cholesterol-free,[1]; [16],1.126
same,Complete,[1]; [17],1.165
same,Cholesterol-free media + simvastatin (0.04 μM),[2]; [22],1.245
same,Complete Media,[2]; [23],1.273
same,Difference,[2]; [20],0.03
Cc1ncc(CNC(=O)N(CCCl)N=O)c(N)n1 [Nimustine (hydrochloride)],Cholesterol-free,[1],1.02
same,Complete,[1],1.016
same,Difference,[1],0.00
same,Cholesterol-free media + simvastatin (0.04 μM),[2],1.194
same,Complete Media,[2],1.026
same,Difference,[2],−0.17
Oc1cc(Cl)ccc1Oc1ccc(Cl)cc1Cl [Triclosan],Difference,"[1]; Complete minus Cholesterol-free, […]",−0.91
same,Cholesterol-free,[1]; [11],1.986
same,Complete,[1]; [12],1.081
same,Cholesterol-free media + simvastatin (0.04 μM),"[2]; NCI-H292 cells, cholesterol-free media with simvastatin 0.04 μM, […]",1.015
same,Complete Media,"[2]; NCI-H292 cells, complete media, […]",1.093
same,Difference,"[2]; complete media minus cholesterol-free media + simvastatin, […]",0.08
Toceranib (phosphate),Cholesterol-free,[1]; [4],1.278
same,Complete,"[1]; NCI-H292 cells, complete media",0.9469
same,Difference,[1]; [24],−0.33
same,Cholesterol-free media + simvastatin (0.04 μM),[2]; [5],0.9001
same,Difference,[2]; [20],0.14
NC[C@H]1O[C@H](O[C@H]2[C@H](O)[C@@H](O[C@H]3O[C@H](CO)[C@@H](O)[C@H](N)[C@H]3O)[C@H](N)C[C@@H]2N)[C@H](N)C[C@@H]1O [Tobramycin],Cholesterol-free,[1]; [16],1.416
same,Complete,[1]; [17],1.802
same,Difference,[1]; [21],0.39
same,Cholesterol-free media + simvastatin (0.04 μM),[2]; [22],0.8625
same,Complete Media,[2]; [23],0.9069
same,Difference,[2]; [20],0.04
Nc1cc(Cl)c(N=C2NCCN2)c(Cl)c1 [Apraclonidine (hydrochloride)],Complete,"[1]; NCI-H292 cells, complete media",1.213
same,Difference,[1]; [24],−0.41
same,Cholesterol-free media + simvastatin (0.04 μM),[2]; [25],1.345
same,Complete Media,[2]; [26],1.018
same,Difference,[2]; [7],−0.33
CN(CCOc1ccc(CC2SC(=O)NC2=O)cc1)c1ccccn1 (centres unmarked) [Rosiglitazone],Difference,[1]; [3],−0.21
same,Cholesterol-free,[1]; [4],1.222
same,Complete,"[1]; NCI-H292 cells, complete media",1.017
same,Cholesterol-free media + simvastatin (0.04 μM),[2]; [5],1.707
same,Complete Media,[2]; [6],1.955
same,Difference,[2]; [20],0.25
CCCN1CC(NS(=O)(=O)N(CC)CC)CC2Cc3c(O)cccc3CC21 (centres unmarked) [Quinagolide (hydrochloride)],Difference,[1]; [18],−0.15
same,Cholesterol-free,[1]; [19],1.129
same,Complete,[1]; [6],0.9753
same,Cholesterol-free media + simvastatin (0.04 μM),[2]; [22],0.9283
same,Complete Media,[2]; [23],1.019
same,Difference,[2]; [20],0.09
CC1(C)S[C@@H]2[C@H](NC(=O)[C@H](N)c3ccccc3)C(=O)N2[C@H]1C(=O)O [Ampicillin],Cholesterol-free,[1]; [16],0.9318
same,Complete,[1]; [17],1.363
same,Difference,[1]; [21],0.43
same,Cholesterol-free media + simvastatin (0.04 μM),[2]; [25],1.07
same,Complete Media,[2]; [26],0.7564
same,Difference,[2]; [7],−0.31
CCCC(=O)O[C@]1(C(=O)COC(C)=O)CC[C@H]2[C@@H]3C[C@H](F)C4=CC(=O)C=C[C@]4(C)[C@@]3(F)[C@@H](O)C[C@@]21C [Difluprednate],Difference,[1]; [3],−0.21
same,Cholesterol-free,[1]; [4],0.9273
same,Complete,"[1]; NCI-H292 cells, complete media",0.7168
same,Cholesterol-free media + simvastatin (0.04 μM),[2]; [22],1.197
same,Complete Media,[2]; [23],1.264
same,Difference,[2]; [20],0.07
CC(=O)NS(=O)(=O)c1ccc(NC(=O)c2ccccc2C(=O)O)cc1 [Phthalylsulfacetamide],Difference,[1]; [3],−0.29
same,Cholesterol-free,[1]; [4],1.274
same,Complete,"[1]; NCI-H292 cells, complete media",0.9792
same,Cholesterol-free media + simvastatin (0.04 μM),[2]; [25],1.031
same,Complete Media,[2]; [26],0.7098
same,Difference,[2]; [7],−0.32
c1ccc(CC2=NCCN2)cc1 [Tolazoline (hydrochloride)],Difference,[1]; [3],−0.25
same,Cholesterol-free,[1]; [4],1.249
same,Complete,"[1]; NCI-H292 cells, complete media",0.9982
same,Cholesterol-free media + simvastatin (0.04 μM),[2]; [8],1.363
same,Complete Media,[2]; [9],1.126
same,Difference,[2]; [7],−0.24
Atracurium (besylate),Difference,[1]; [10],−0.49
same,Cholesterol-free,[1]; [11],1.419
same,Complete,[1]; [12],0.9276
same,Cholesterol-free media + simvastatin (0.04 μM),[2]; [8],1.369
same,Difference,[2]; [7],−0.26
COC(=O)c1cc(OC)c2c(c1-c1c(CO)cc(OC)c3c1OCO3)OCO2 [Bicyclol],Cholesterol-free,[1]; [16],0.552
same,Complete,[1]; [17],0.7456
same,Difference,[1]; [21],0.19
same,Cholesterol-free media + simvastatin (0.04 μM),[2]; [25],1.331
same,Complete Media,[2]; [26],1.025
same,Difference,[2]; [7],−0.31
Escitalopram (oxalate),Difference,[1]; [3],−0.01
same,Cholesterol-free,[1]; [16],1.284
same,Complete,[1]; [17],1.269
same,Cholesterol-free media + simvastatin (0.04 μM),[2]; [22],0.9976
same,Difference,[2]; [20],0.04
CC(C)C(=O)Oc1ccc(CO)cc1[C@H](CCN(C(C)C)C(C)C)c1ccccc1 [Fesoterodine (L-mandelate)],Cholesterol-free,[1]; [16],0.7419
same,Complete,[1]; [17],1.264
same,Difference,[1]; [21],0.52
same,Cholesterol-free media + simvastatin (0.04 μM),[2]; [5],1.103
same,Complete Media,[2]; [6],0.9892
same,Difference,[2]; [7],−0.11
CC(=O)O[C@]1(C(C)=O)CC[C@H]2[C@@H]3CCC4=CC(=O)CCC4=C3[C@@H](c3ccc(N(C)C)cc3)C[C@@]21C [Ulipristal acetate],Cholesterol-free,[1]; [4],1.13
same,Complete,"[1]; NCI-H292 cells, complete media",0.8186
same,Difference,[1]; [24],−0.31
same,Cholesterol-free media + simvastatin (0.04 μM),[2]; [13],0.6984
same,Complete Media,[2]; [14],0.695
same,Difference,[2]; [15],0.00
O=C1[C@@H]2[C@H]3CC[C@H](C3)[C@@H]2C(=O)N1C[C@@H]1CCCC[C@H]1CN1CCN(c2nsc3ccccc23)CC1 [Lurasidone (Hydrochloride)],Difference,[1]; [3],−0.27
same,Cholesterol-free,[1]; [4],1.115
same,Complete,"[1]; NCI-H292 cells, complete media",0.8426
same,Cholesterol-free media + simvastatin (0.04 μM),[2]; [13],0.8431
same,Complete Media,[2]; [14],0.8046
same,Difference,[2]; [15],−0.04
"NCCCC[C@H](NC(=O)[C@@H]1CCCN1C(=O)[C@@H]1CSSC[C@H](N)C(=O)N[C@@H](Cc2ccccc2)C(=O)N[C@@H](Cc2ccccc2)C(=O)N[C@@H](CCC(N)=O)C(=O)N[C@@H](CC(N)=O)C(=O)N1)C(=O)NCC(N)=O [Felypressin] (HELM PEPTIDE1{C.F.F.Q.N.C.P.K.G.[am]}$PEPTIDE1,PEPTIDE1,1:R3-6:R3$$$V2.0)",Cholesterol-free,[1],0.991
same,Complete,[1],0.8009
same,Difference,[1],−0.19
same,Cholesterol-free media + simvastatin (0.04 μM),[2],1.091
same,Complete Media,[2],0.9792
same,Difference,[2],−0.11
NCCCC[C@H](N)C(=O)O.O=C(O)COc1nn(Cc2ccccc2)c2ccccc12 [Bendazac L-Lysine],Cholesterol-free,[1]; [16],0.6107
same,Complete,[1]; [17],1.115
same,Difference,"[1]; complete vs cholesterol-free media, […]",0.50
same,Cholesterol-free media + simvastatin (0.04 μM),[2]; [5],1.079
same,Complete Media,[2]; [6],0.922
same,Difference,"[2]; complete media vs cholesterol-free media + simvastatin (0.04 μM), […]",−0.16
